Results taken from article PMC12974487, “Inhibition of FicD-mediated AMPylation and deAMPylation by isoprenoid diphosphates” (Proceedings of the National Academy of Sciences of the …, 2026).
“Also recorded” adds a separate entry of the source.

What was measured:
VopS = target: T1, VopS (Vibrio parahaemolyticus serotype O3:K6, UniProt Q87P32); assay: In vitro AMPylation of GST-CDC42 by VopS; type: biochemical
T1 construct: made in house
Source text: Finally, we explored the inhibitory effects of GPP/FPP on other Fido proteins to see if these metabolites could serve as generic inhibitors of Fido domains. To test this specificity, we performed in vitro activity assays with GPP/FPP and two constitutively active Fido proteins from bacteria: VopS from Vibrio parahaemolyticus ([25]) and AvrB from Pseudomonas syringae ([30]). […]
visualization. Min-max scaled RFU values and the first derivatives are plotted as a function of temperature in Graphpad Prism 10.6.1. In Prism, the first derivative values are uniformly nudged by -1 to facilitate presenting RFU values and their first derivatives on the same graph.
To generate dose-response curves, ΔTm, was first calculated by subtracting the Tm of the ’no ligand’ control from the Tm of relevant ligand-containing reactions. ΔTm was then plotted as a function of ligand concentration. Dose-response curves were fit using GraphPad Prism 10.6.1 with the [Agonist] vs. Response – Variable Slope (four parameters) model. […]
Dialyzed proteins were then spun down at 21,000G for 15 minutes at 4C to remove trace insoluble material. The protein concentration was measured spectrophotometrically and then diluted to working concentration with 25mM HEPES pH 7.4/100mM KCl/10% glycerol. […] Integrated data was globally analyzed in SEDPHAT 15.b (12) using a model considering a single class of binding sites. […]

FicD^E234G, L258D = target: T2, FicD^E234G, L258D (Homo sapiens, UniProt Q9BVA6, E234G/L258D); assay: DSF thermal shift with FicD^E234G, L258D; type: binding
T2 construct: Wild-type FicD (residues 105-458) and all mutants were expressed as N-terminal 6xHis-Sumo fusions; 6xHis-Sumo (N, cleaved yes); made in house; host or cells: Rosetta(DE3) E. coli
T2 sequence (Q9BVA6 105-458 E234G/L258D): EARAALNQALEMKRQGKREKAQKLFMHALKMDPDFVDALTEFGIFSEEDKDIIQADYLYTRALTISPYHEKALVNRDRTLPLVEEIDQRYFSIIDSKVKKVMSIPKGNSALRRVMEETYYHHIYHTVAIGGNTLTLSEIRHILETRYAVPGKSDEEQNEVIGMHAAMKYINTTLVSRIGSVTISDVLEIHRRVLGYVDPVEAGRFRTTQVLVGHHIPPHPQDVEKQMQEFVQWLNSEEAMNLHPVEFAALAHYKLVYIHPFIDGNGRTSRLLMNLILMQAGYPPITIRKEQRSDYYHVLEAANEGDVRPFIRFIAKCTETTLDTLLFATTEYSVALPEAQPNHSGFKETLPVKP

T1 sequence (Q87P32 31-387): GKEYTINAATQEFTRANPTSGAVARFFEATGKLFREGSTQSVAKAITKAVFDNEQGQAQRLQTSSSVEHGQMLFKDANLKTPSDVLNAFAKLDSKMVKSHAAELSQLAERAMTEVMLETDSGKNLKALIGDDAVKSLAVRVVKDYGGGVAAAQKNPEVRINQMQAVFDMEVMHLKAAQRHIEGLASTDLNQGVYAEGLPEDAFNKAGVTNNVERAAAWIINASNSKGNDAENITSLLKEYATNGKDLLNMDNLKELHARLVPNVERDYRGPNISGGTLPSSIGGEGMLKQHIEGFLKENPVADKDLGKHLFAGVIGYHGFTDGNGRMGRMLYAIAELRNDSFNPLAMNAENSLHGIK

Q: Which “effect on AMPylation activity of VopS” value (VopS) does the source give for `CC(C)=CCC/C(C)=C/CC/C(C)=C/COP(=O)(O)OP(=O)(O)O` [FPP, farnesyl-pyrophosphate] here?
A: Neither GPP nor FPP affected; also recorded: not inhibited

Q: What about the “binding to FicD^E234G, L258D by DSF” value (FicD^E234G, L258D; absence of MgCl2) of the same compound?
A: bound

Q: And the “binding to FicD^E234G, L258D by DSF” value (FicD^E234G, L258D; presence of 5 mM MgCl2)?
A: bound

Q: `CC(C)=CCC/C(C)=C/COP(=O)(O)OP(=O)(O)O` [GPP, geranyl-pyrophosphate] was tested. Which “effect on AMPylation activity of VopS” value (VopS) did it give?
A: Neither GPP nor FPP affected
